Reference: patent publication US7291740B2, “5-[4-[2-(N-methyl-N-(2-pyridyl)amino)ethoxy]benzyl]thiazolidine-2,4-dione Mesylate salt” (SmithKline Beecham p.l.c., priority 2000, dated 2007)
Read-outs that look alike come from different tables or passages of the source.

Assay: Solubility of the Mesylate in water (aliquot addition until the powder dissolved)
Format: physicochemical
Description: The visual solubility was confirmed by an HPLC assay of a saturated solution.

## CN(CCOc1ccc(CC2SC(=O)NC2=O)cc1)c1ccccn1.CS(=O)(=O)O (stereo not shown) [Example 1, 5-[4-[2-(N-methyl-N-(2-pyridyl)amino)ethoxy]benzyl]thiazolidine-2,4-dione methanesulfonate Form I]
water, visual dissolution (Form IV confirmed by HPLC assay of a saturated solution)
  Solubility: > 100 mg/mL

## CN(CCOc1ccc(CC2SC(=O)NC2=O)cc1)c1ccccn1.CS(=O)(=O)O (stereo not shown) [Example 3, 5-[4-[2-(N-methyl-N-(2-pyridyl)amino)ethoxy]benzyl]thiazolidine-2,4-dione methanesulfonate Form II]
  Solubility: > 100 mg/mL

## CN(CCOc1ccc(CC2SC(=O)NC2=O)cc1)c1ccccn1.CS(=O)(=O)O (stereo not shown) [Example 4, 5-[4-[2-(N-methyl-N-(2-pyridyl)amino)ethoxy]benzyl]thiazolidine-2,4-dione methanesulfonate Form III]
  Solubility: > 100 mg/mL

## CN(CCOc1ccc(CC2SC(=O)NC2=O)cc1)c1ccccn1.CS(=O)(=O)O (stereo not shown) [Example 11, 5-[4-[2-(N-methyl-N-(2-pyridyl)amino)ethoxy]benzyl]thiazolidine-2,4-dione methanesulfonate Form IV]
  Solubility: > 100 mg/mL
